Assay in all cases: pIC50, kinobeads binding competition
The target of one test is CAMKK1 (UniProt Q8N5S9). Put shortly: (§1)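 Live Jurkat cells were treated with nine compound concentrations (top 30 μM, 1:4 steps) or DMSO for 60 min at 37 °C before lysis. Alternatively, Jurkat lysate or a 1:1:1:1 HEK293/K-562/HepG2/placenta lysate mix was incubated with nine concentrations (top 30 μM, 1:5 steps) for 60 min at 4 °C. Kinobeads-bound proteins were digested and quantified by TMT10 LC-MS/MS. pIC50 came from logistic dose-response fits (R drc package) of fold changes versus DMSO, in biological duplicates.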

The next test concerns the target CAMKK2 (UniProt Q96RR4). Put shortly: as §1
A further test has as its target CDK2 (UniProt P24941). The procedure, abridged:
as §1

Another test deals with CDK5 (UniProt Q00535). Put shortly:
as §1

A further test concerns the target DDR1 (UniProt Q08345). Put shortly: as §1
Another test concerns the target EIF2AK4 (UniProt Q9P2K8). Put shortly:
as §1

A further test concerns the target EPHA7 (UniProt Q15375). To be noted: cell material: Lysate mix. The procedure, abridged:
as §1

In the next test the target is T1, GAK (UniProt O14976).
T1 sequence (whole entry): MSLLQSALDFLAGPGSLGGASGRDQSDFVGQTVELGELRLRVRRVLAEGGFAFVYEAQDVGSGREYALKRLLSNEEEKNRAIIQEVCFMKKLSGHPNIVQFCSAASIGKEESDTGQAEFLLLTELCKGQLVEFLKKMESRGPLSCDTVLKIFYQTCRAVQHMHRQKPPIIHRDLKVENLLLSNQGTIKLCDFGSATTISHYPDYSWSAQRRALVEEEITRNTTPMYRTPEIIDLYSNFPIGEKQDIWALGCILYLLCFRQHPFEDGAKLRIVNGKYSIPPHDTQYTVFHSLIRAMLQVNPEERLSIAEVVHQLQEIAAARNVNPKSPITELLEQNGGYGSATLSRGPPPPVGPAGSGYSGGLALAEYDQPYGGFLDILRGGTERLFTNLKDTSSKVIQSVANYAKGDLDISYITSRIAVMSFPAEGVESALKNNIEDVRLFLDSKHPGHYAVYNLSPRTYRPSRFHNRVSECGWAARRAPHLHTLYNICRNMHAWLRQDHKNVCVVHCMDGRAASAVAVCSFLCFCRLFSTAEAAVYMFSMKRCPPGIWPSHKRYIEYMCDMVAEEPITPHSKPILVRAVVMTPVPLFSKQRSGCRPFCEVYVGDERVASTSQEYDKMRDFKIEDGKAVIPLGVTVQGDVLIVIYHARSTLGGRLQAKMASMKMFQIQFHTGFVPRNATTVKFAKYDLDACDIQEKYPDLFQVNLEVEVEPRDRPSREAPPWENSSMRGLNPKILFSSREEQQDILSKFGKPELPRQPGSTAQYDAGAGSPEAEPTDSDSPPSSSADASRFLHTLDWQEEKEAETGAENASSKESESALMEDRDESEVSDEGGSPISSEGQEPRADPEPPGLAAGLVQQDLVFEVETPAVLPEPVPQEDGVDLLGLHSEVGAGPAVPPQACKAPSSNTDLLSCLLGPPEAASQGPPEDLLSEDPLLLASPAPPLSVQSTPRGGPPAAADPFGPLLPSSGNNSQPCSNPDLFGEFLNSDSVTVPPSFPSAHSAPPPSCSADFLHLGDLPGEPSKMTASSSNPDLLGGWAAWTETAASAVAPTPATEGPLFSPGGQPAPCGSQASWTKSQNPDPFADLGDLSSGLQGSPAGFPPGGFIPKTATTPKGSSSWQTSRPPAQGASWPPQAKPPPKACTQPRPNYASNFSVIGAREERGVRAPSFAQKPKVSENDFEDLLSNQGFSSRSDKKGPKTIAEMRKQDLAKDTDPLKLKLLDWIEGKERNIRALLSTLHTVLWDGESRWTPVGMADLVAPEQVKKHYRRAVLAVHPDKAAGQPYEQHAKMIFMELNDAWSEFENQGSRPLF
Put shortly: as §1

Another test concerns the target MAPK11 (UniProt Q15759). The procedure, abridged:
as §1

In another test the target is MAPK14 (UniProt Q16539). The procedure, abridged: as §1
Another test has as its target T2, UniProt O60285.
T2 sequence (whole entry): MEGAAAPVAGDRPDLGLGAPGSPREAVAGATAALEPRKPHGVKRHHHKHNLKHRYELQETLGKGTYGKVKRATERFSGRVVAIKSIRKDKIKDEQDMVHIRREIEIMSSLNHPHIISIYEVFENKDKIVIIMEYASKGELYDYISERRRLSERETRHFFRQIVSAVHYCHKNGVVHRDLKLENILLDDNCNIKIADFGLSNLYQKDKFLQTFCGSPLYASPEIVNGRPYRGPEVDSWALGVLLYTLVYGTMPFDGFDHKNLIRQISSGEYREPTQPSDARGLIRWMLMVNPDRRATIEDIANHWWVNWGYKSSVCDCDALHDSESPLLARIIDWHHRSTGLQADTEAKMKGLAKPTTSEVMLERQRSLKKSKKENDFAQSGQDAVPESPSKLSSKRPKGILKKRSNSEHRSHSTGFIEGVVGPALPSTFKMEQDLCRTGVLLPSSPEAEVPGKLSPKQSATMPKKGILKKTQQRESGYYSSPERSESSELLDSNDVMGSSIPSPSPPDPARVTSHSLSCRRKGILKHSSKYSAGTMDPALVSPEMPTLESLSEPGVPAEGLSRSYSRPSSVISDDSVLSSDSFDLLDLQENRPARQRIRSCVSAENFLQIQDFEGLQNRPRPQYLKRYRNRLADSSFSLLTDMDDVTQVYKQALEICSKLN
As to conditions: cell material: Lysate mix. The procedure, abridged: as §1

In a further test the target is UniProt O75716. The procedure, abridged:
as §1

The next test has as its target UniProt O96017. Put shortly: as §1
The target in a further test is UniProt Q16584. The procedure, abridged:
as §1

The next test deals with UniProt Q5VT25. The procedure, abridged:
as §1

From the supplement of paper PMC12076712 come the findings set out here.

Bounds are passed on as bounds.

Chain of MAPK14 (Q16539 whole entry): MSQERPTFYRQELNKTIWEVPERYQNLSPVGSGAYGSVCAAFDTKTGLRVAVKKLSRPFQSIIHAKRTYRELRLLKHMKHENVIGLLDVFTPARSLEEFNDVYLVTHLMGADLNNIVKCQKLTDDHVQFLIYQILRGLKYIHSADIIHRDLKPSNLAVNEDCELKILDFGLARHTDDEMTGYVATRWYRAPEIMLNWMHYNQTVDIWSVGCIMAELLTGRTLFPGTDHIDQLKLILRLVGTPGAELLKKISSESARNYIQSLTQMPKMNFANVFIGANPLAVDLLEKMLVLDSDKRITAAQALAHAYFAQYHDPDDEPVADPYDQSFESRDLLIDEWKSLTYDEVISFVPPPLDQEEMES
Chain of UniProt O75716 (O75716 whole entry): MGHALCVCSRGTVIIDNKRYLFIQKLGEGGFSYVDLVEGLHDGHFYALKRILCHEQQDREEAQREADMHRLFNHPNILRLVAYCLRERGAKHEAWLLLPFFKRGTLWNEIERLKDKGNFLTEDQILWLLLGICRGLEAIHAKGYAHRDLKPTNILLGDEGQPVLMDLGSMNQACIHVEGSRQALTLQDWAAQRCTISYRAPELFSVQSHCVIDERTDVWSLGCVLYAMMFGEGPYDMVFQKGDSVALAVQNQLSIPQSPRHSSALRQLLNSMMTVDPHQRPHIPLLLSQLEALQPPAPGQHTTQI
Chain of EPHA7 (Q15375 whole entry, looked up): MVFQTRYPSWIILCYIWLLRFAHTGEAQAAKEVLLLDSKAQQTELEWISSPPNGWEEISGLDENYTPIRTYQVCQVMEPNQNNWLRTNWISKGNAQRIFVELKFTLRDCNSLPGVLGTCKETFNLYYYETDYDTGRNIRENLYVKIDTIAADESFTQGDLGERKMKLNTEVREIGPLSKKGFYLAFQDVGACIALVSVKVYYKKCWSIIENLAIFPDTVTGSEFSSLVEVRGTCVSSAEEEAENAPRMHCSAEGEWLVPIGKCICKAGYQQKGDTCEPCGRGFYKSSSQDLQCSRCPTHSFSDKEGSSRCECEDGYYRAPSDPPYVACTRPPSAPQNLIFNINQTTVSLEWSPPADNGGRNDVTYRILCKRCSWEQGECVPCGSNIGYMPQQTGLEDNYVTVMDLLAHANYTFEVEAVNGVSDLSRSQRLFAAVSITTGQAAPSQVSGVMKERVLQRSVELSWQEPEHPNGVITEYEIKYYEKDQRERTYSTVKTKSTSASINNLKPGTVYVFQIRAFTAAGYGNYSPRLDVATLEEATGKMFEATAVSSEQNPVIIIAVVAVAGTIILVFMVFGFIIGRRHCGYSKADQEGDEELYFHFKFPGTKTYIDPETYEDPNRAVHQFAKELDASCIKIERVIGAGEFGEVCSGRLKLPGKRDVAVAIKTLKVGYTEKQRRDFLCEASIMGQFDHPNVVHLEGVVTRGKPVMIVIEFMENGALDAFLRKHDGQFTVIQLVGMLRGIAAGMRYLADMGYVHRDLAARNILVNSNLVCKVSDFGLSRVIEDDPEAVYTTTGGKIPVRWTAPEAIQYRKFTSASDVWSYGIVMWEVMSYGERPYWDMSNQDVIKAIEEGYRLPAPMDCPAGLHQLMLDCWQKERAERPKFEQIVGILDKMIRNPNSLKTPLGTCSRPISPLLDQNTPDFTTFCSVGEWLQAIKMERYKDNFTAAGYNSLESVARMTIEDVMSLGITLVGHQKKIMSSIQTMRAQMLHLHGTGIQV
Chain of MAPK11 (Q15759 whole entry): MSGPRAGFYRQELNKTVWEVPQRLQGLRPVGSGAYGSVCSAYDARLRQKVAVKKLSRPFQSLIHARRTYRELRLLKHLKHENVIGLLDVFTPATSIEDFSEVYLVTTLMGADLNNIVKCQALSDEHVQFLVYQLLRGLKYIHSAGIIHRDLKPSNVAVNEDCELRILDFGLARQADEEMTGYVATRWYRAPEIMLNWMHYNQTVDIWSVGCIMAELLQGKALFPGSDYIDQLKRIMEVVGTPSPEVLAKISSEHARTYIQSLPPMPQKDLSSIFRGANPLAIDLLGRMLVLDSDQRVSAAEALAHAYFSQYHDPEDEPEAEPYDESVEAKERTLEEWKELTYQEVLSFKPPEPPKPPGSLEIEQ
Chain of EIF2AK4 (Q9P2K8 whole entry): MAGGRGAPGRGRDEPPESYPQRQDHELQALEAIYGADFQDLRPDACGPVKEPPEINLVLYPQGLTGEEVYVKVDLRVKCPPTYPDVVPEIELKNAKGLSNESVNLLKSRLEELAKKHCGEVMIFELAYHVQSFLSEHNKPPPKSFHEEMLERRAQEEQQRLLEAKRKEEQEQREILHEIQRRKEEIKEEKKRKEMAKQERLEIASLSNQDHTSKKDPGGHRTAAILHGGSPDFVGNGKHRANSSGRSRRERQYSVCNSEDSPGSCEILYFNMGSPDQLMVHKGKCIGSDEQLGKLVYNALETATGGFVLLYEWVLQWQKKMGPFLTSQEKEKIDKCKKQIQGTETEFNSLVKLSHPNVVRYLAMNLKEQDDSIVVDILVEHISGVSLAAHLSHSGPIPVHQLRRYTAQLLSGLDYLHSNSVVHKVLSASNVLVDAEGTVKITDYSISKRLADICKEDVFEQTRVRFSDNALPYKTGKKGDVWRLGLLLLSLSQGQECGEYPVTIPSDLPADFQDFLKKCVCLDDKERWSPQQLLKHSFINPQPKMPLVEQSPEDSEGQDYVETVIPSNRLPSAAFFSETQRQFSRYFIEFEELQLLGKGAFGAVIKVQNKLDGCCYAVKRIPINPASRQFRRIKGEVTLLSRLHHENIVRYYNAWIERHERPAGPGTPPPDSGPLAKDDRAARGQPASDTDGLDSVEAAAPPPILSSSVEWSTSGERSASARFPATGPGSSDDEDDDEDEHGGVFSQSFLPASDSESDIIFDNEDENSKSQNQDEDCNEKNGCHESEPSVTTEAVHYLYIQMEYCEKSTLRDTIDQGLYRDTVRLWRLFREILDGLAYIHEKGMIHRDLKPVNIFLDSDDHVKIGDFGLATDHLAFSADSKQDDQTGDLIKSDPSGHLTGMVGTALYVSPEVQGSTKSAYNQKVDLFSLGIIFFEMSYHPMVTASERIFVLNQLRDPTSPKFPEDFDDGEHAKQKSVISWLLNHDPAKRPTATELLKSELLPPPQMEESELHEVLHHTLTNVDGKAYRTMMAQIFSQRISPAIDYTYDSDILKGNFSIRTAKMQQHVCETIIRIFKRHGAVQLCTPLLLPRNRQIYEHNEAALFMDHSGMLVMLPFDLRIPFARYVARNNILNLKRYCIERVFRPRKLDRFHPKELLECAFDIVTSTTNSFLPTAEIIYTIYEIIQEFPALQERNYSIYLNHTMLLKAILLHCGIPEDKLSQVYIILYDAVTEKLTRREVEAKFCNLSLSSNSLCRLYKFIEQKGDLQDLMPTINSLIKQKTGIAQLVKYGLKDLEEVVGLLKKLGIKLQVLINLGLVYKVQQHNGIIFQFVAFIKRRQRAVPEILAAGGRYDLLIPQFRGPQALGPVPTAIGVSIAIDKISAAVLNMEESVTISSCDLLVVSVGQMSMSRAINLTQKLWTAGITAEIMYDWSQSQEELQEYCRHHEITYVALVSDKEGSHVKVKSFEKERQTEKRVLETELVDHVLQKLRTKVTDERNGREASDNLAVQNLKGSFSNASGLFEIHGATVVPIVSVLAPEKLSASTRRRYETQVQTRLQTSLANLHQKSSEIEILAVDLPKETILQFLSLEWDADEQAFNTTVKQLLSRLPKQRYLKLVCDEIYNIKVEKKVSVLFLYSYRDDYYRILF
Chain of UniProt O96017 (O96017 whole entry): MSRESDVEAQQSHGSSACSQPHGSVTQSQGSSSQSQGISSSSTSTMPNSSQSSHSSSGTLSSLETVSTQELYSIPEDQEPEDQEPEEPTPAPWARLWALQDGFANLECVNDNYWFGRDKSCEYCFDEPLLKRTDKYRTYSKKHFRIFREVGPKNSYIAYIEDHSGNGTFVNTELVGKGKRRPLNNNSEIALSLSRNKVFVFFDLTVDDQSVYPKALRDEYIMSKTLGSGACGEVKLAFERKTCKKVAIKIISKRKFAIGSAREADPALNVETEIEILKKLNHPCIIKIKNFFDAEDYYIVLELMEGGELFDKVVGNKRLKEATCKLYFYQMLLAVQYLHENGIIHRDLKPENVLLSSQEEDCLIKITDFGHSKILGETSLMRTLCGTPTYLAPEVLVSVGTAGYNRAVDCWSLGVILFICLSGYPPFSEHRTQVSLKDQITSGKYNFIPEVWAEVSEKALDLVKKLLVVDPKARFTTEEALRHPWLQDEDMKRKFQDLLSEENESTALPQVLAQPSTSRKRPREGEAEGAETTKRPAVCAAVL
Chain of CDK5 (Q00535 whole entry, looked up): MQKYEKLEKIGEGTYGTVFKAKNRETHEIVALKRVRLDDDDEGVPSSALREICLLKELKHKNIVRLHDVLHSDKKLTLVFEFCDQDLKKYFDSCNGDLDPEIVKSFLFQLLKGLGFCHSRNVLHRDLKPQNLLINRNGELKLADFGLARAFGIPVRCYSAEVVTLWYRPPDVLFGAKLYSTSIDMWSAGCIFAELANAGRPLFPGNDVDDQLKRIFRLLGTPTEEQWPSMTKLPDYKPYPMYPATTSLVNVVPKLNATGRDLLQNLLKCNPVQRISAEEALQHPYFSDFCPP
Chain of CAMKK1 (Q8N5S9 whole entry, looked up): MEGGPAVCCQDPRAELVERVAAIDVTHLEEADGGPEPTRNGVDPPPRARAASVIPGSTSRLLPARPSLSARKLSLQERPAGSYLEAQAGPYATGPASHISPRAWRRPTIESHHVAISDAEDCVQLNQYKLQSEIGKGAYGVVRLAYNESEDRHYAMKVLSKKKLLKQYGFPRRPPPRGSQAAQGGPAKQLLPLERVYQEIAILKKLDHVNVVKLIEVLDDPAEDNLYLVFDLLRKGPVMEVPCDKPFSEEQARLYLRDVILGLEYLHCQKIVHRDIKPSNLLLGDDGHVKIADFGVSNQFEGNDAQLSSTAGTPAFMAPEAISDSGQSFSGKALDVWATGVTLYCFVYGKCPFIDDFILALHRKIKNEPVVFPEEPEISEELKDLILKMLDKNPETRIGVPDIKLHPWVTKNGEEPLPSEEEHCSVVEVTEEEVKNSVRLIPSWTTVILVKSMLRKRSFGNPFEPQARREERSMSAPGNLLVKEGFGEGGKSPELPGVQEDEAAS

As to `Cc1cc(Nc2cc(C(=O)NCCNC(=O)OC3CC/C=C/CCC3)nc(N3CCN(Cc4ccc(S(=O)(=O)F)cc4)CC3)n2)n[nH]1` (stereo not given), the pIC50 on CAMKK1 (cell material: Lysate mix) is 5.96; at CAMKK2 (cell material: Lysate mix) it was less than 4.52; at CDK2 (cell material: Lysate mix), 4.74; on CDK5 (cell material: Lysate mix), 4.92; at DDR1 (cell material: Lysate mix) it was less than 4.52; at EIF2AK4 (cell material: Lysate mix) it was less than 4.52. The pIC50 at EPHA7, at GAK (cell material: Lysate mix), at MAPK11 (cell material: Lysate mix), on MAPK14 (cell material: Lysate mix), on UniProt O60285 and at UniProt O75716 (cell material: Lysate mix) was less than 4.52 each time. Moreover, the pIC50 was 5.23 on UniProt O96017 (cell material: Lysate mix), less than 4.52 at UniProt Q16584 (cell material: Lysate mix) and less than 4.52 at UniProt Q5VT25 (cell material: Lysate mix).

Regarding `CCNC(=O)c1cc(Nc2cc(C)[nH]n2)nc(N2CCN(Cc3ccc(S(=O)(=O)F)cc3)CC2)n1`, the pIC50 on CAMKK1 (cell material: Lysate mix) was 5.97; at CAMKK2 (cell material: Lysate mix), less than 4.52; at CDK2 (cell material: Lysate mix), 6.47; on CDK5 (cell material: Lysate mix) it was 5.93; at DDR1 (cell material: Lysate mix) it was less than 4.52; at EIF2AK4 (cell material: Lysate mix), 4.98. Moreover, the pIC50 at EPHA7 is less than 4.52; on GAK (cell material: Lysate mix), less than 4.52; at MAPK11 (cell material: Lysate mix), less than 4.52; on MAPK14 (cell material: Lysate mix), less than 4.52; on UniProt O60285, less than 4.52; at UniProt O75716 (cell material: Lysate mix) it was 4.87. Further, the values for the pIC50 at UniProt O96017 (cell material: Lysate mix), at UniProt Q16584 (cell material: Lysate mix) and at UniProt Q5VT25 (cell material: Lysate mix) were 4.92, less than 4.52 and less than 4.52, respectively.

As for `C#CCNC(=O)c1cc(Nc2cc(C3CC3)[nH]n2)nc(N2CCN(Cc3ccc(S(=O)(=O)F)cc3)CC2)n1`, the pIC50 worked out at 6.26 on CAMKK1 (cell material: Jurkat cells); 6.86 at CAMKK1 (cell material: Jurkat lysate); 7.04 on CAMKK1 (cell material: Lysate mix); 5.88 at CAMKK2 (cell material: Jurkat cells); 5.7 at CAMKK2 (cell material: Jurkat lysate); 5.88 at CAMKK2 (cell material: Lysate mix). Besides, the pIC50 on CDK2 (cell material: Jurkat cells) came out at 6.8; on CDK2 (cell material: Jurkat lysate) it was 6.16; on CDK2 (cell material: Lysate mix), 6.7; at CDK5 (cell material: Jurkat cells), 6.74; at CDK5 (cell material: Jurkat lysate) it was 5.96; at CDK5 (cell material: Lysate mix), 6.48. The pIC50 at DDR1 (cell material: Jurkat cells) is 5.54; on DDR1 (cell material: Jurkat lysate), less than 4.52; on DDR1 (cell material: Lysate mix), less than 4.52; on EIF2AK4 (cell material: Jurkat cells), 6.08; at EIF2AK4 (cell material: Jurkat lysate), 4.63; at EIF2AK4 (cell material: Lysate mix) it was 5.44. Also, the pIC50 on EPHA7, on GAK (cell material: Jurkat cells), at GAK (cell material: Jurkat lysate), at GAK (cell material: Lysate mix), at MAPK11 (cell material: Jurkat lysate) and at MAPK11 (cell material: Lysate mix) was less than 4.52 throughout. Moreover, the pIC50 on MAPK14 (cell material: Jurkat cells) is less than 4.52; at MAPK14 (cell material: Jurkat lysate) it was less than 4.52; on MAPK14 (cell material: Lysate mix), less than 4.52; on UniProt O60285, 4.83; on UniProt O75716 (cell material: Jurkat cells), 5.82; on UniProt O75716 (cell material: Jurkat lysate), 4.92. Also, the pIC50 was found to be 5.32 on UniProt O75716 (cell material: Lysate mix); 5.76 on UniProt O96017 (cell material: Jurkat cells); 4.88 at UniProt O96017 (cell material: Jurkat lysate); 4.92 on UniProt O96017 (cell material: Lysate mix); 6.26 on UniProt Q16584 (cell material: Jurkat cells); 5.22 at UniProt Q16584 (cell material: Jurkat lysate). The pIC50 is 5.64 on UniProt Q16584 (cell material: Lysate mix), 5.28 at UniProt Q5VT25 (cell material: Jurkat cells), less than 4.52 on UniProt Q5VT25 (cell material: Jurkat lysate) and less than 4.52 at UniProt Q5VT25 (cell material: Lysate mix).
